Series [1] has as its system CK KD PC-3 cells. The experiment in a line: MTT assay in choline kinase knock down cells (siRNA). As to conditions: Homo sapiens, PC-3, 48 h; read-out: decrease in cell viability. The series is classed as cell-based. The text has this:
(Panel D) Choline kinase expression in prostate cancer cell lines (PC-3, DU145 and C42B) and normal prostate cell line (RWPE-1). GAPDH was used as a loading control. (Panel E) Scatter-plot comparing choline kinase expression in normal and cancer tissue from prostate cancer patients (p=0.002). The p value for statistical significance was set up as 0.05, while the fold change was defined as mean of all individual data points of analyzed datasets. (Panel Fi) Micrographs showing immunohistochemical staining of choline kinase enzyme in normal and cancer tissue from prostate cancer patients. (Panel Fii) Quantification (composite score) of choline kinase expression in normal and cancer tissue from prostate cancer patient. Five normal and five cancer tissue cases on TMA were scored for choline kinase staining percentage and intensity and composite scores were calculated using two parameters. As shown in these figures, choline kinase enzyme is highly expressed in cancer tissue as opposed to normal tissue.
A siRNA approach was further employed to confirm the role of CK in Etn-induced cell death.
Background: Tetrazolium dyes change colour on reduction, which living cells bring about.

Series [2] is described as follows: Stability in simulated intestinal fluid (SIF). As to conditions: 10 μM, SIF pH 6.8, over time (to 120 min). The series is classed as in vitro ADME. The procedure: Samples (100 μl) were drawn at 0, 15, 30 and 60 min from SGF reaction-vials and at 0, 30, 60 and 120 min from SIF reaction-vials, quenched with acetonitrile, vortex-mixed, and centrifuged before supernatant analysis by LC-MS/MS analysis. […] For PK studies, a sparse sampling design with 3 mice per time point was used to collect blood samples at 5, 10, 15, 30 min and 1, 2, 3, 4, 5 and 6 h in K2EDTA-coated tubes. The pharmacokinetic parameters (AUClast, Cmax, CL and Vss) were calculated using non-compartmental analysis tool of Phoenix WinNonlin software (version 6.3).
Given the extreme pH and various digestive enzymes, the GI tract presents a harsh environment to any ingested xenobiotic. Thus, many potential drug candidates are degraded in the GI tract, explaining their decreased bioavailability or inability to reach the target at effective concentrations. Simulated gastric fluid (SGF; pH 1.2) and simulated intestinal fluid (SIF; pH 6.8) closely mimic the GI tract environment and are amenable in vitro systems to evaluate degradation of a compound in GI tract (US Pharmacopoia).
Simulated gastric fluid was prepared as per U.S. Pharmacopeia (USP) methods. Sodium chloride (2 g) and pepsin (3.2 g, from porcine stomach mucosa) were dissolved in 7.0 ml hydrochloric acid and Milli-Q water to make up the volume to 1000 ml and the pH was adjusted to 1.2. […]

In series [3] the target is CYP2E1 (Homo sapiens, UniProt P05181). The experiment in a line: CYP inhibition in human liver microsomes. On the technique in general: Liver microsomes are vesicles of endoplasmic reticulum, rich in cytochrome P450 enzymes.
Sequence of CYP2E1 (P05181 whole entry): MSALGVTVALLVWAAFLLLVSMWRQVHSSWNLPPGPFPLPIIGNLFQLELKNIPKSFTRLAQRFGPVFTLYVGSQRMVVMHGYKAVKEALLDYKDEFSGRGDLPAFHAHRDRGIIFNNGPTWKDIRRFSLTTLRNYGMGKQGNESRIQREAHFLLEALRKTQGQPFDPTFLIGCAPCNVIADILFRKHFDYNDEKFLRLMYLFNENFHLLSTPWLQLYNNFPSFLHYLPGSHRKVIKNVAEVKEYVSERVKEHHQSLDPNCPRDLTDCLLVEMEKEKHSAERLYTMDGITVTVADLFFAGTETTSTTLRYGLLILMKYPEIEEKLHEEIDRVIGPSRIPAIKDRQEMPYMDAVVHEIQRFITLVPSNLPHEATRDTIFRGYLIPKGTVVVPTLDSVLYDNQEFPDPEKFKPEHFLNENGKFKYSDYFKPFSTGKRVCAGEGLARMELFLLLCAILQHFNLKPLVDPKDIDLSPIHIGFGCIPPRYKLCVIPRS
The test system of series [4] is p21, PARP1, Bcl-2, HIF1-α, Bax and Bid. The experiment in a line: Real time-PCR transcription levels. As to conditions: PC-3 cells, 2 mg/ml Etn for 48 h. The series is classed as cell-based, human. The procedure:
(§1) OCR was measured using an oxygen electrode.
To test this hypothesis, HIF1-α expression levels were analyzed in Etn-treated tumors and PC-3 cells. […] DMOG, an HIF1-α activator, was then employed to test whether Etn-mediated cell death in PC-3 cells was associated with HIF1-α stabilization (active HIF1-α signaling).
RNA was extracted from control and 2 mg/ml Etn-treated PC-3 cells using a RNeasy kit from Qiagen (Hilden, Germany), and quantified using NanoDrop. Reverse transcription of RNA was performed for the first strand cDNA synthesis using a first strand synthesis kit (GoScript™ Reverse Transcription System-A5000) from Promega (Madison, Wis.). The quality of synthesized cDNAs was checked on an agarose gel. RT-PCR of cDNA samples (in duplicates) was performed using iQ™ SYBR® Green Supermix from Bio-Rad (Hercules, Calif.) as per manufacturer's instructions. The RT-PCR primers were designed manually, checked with the primer3 software and ordered from Sigma (St Louis, Mo.).

Series [5] concerns plasma proteins. The series is described as follows: Binding to proteins in plasma (ultrafiltration). The series is classed as in vitro ADME. The following applies: pH 7.4, 37° C., 30 min. As for the experimental part: Plasma from human, dog, rat and mouse were thawed and incubated at 37° C. The pH of the plasma was adjusted to 7.4 using dilute hydrochloric acid. A 5 μL aliquot of ethanolamine (2 mM) was spiked into 995 μL of plasma and incubated at 37° C. for 30 min in CO2 incubator. One mL aliquots of plasma were transferred to ultrafiltration tubes for analysis. All ultrafiltration tubes were centrifuged at 1000 g for 20 min. Samples from top and bottom chamber of ultrafiltration tube were collected. Equal volume of blank plasma and ultrafiltrate were mixed to ultrafiltrate and plasma to make the matrix same. Samples were processed by using acetonitrile containing internal standard and subjected to LC/MS/MS analysis.

The subject of series [6] is pRb, Cdk4, Cdk2, p21, c-PARP, Bim, Bcl-2. The series is described as follows: Immunoblot of cell lysates. The series is classed as cell-based, human. The following applies: PC-3 cells, 2 mg/ml Etn for 48 h. The procedure:
as §1
Proteins were resolved by polyacrylamide gel electrophoresis and transferred onto polyvinylidene difluoride membranes (Millipore, Billerica, Mass., USA). The membranes were blocked in Tris-buffered saline containing 0.05% Tween-20 and 5% fat-free dry milk and incubated first with primary antibodies and then with horseradish peroxidase-conjugated secondary antibodies. Specific proteins were visualized with enhanced chemiluminescence detection reagent according to the manufacturer's instructions (Pierce Biotechnology, Rockford, Ill., USA).

Series [7] in a line: in vivo. The following applies: SD, rat, po, 40 mg/kg. Also on record: species or system SD rats. The text has this: These formulations differ in pH and/or acid used to adjust the pH.
The target of series [8] is CYP2B6 (Homo sapiens, UniProt P20813). The series is described as follows: CYP inhibition in human liver microsomes.
Sequence of CYP2B6 (P20813 whole entry): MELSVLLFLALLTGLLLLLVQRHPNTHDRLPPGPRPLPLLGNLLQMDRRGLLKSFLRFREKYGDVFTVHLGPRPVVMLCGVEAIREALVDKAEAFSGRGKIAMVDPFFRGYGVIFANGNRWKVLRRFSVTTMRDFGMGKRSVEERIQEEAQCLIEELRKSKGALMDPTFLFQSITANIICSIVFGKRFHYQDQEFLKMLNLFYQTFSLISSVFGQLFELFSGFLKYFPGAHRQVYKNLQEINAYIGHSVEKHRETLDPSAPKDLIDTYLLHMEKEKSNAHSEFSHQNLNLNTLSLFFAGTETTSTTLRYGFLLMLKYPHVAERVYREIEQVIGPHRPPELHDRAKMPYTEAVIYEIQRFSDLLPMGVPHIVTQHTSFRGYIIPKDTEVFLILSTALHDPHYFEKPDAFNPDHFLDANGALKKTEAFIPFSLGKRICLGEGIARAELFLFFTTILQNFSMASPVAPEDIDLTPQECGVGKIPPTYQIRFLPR

This is an account of results in patent US11607421B2, “Ethanolamine-based lipid biosynthetic compounds, method of making and use thereof” (Metanoi Therapeutics, Inc., priority 2016, dated 2023).

A word on the IC50: it is the concentration needed to halve the response being measured. Low readings indicate inhibition by little substance, high ones a need for much substance. The Tmax is the time from dosing to the highest level. The AUC(0-t) is the area under the concentration-time curve up to a stated or last time point. A higher AUC(0-t) goes with more exposure. As usually defined, the Cmax is the peak of the concentration-time curve.

Consider `NCCO` [Etn, monoethanolamine], for which the cytotoxicity at 500 µg/mL in series [1] is around 11%. In addition, the “stability in SIF” value in series [2] is listed as “remained unchanged”. The IC50 in series [3] and in series [8] was above 100 µM in each case. Also, the “reduction in HIF1-α transcript levels compared to control cells” value in series [4] is 50 fold. For the same compound, in series [4], the “transcription levels of cell-cycle and apoptosis regulators” value was “upregulated p21, PARP1, Bax and Bid, and downregulated Bcl-2”. Besides, the percent bound entry in series [5] (dog plasma), in series [5] (human plasma), in series [5] (mouse plasma) and in series [5] (rat plasma) was “less than 85%” each time. Moreover, in series [6], the “protein expression of apoptosis regulators” value is “an increase in protein expression of proapoptotic markers (c-PARP and Bim) and a decrease in antiapoptotic molecules (Bcl-2)”. The “protein expression of cell-cycle regulators” value in series [6] is “downregulated protein expression of pRb, Cdk4, and Cdk2, and upregulated p21 expression”. Moreover, the Tmax in series [7] (female, pH 5) is 19.8 min; in series [7] (female, pH 7.4) it was 19.8 min; in series [7] (male, pH 5), 19.8 min; in series [7] (male, pH 7.4) it was 19.8 min. For the same compound, the AUC(0-t) stood at 33.8 µg·h/mL in series [7] (female, pH 5, AUClast); 29 µg·h/mL in series [7] (female, pH 7.4, AUClast); 29.5 µg·h/mL in series [7] (male, pH 5, AUClast); 27.3 µg·h/mL in series [7] (male, pH 7.4, AUClast). For the same compound, the Cmax in series [7] (female, pH 5, Cmax) was 24.1 µg/mL; in series [7] (female, pH 7.4, Cmax), 25 µg/mL; in series [7] (male, pH 5, Cmax) it was 27.1 µg/mL; in series [7] (male, pH 7.4, Cmax), 23.7 µg/mL.
